We go through 20 compounds from patent US5719151A, “Substituted benzene compounds” (priority 1990, dated 1998).

The target of series [1] is T1, poly(ADP-ribose)polymerase (Homo sapiens, UniProt P09874). In words: Formation of covalent compounds (with the enzyme). The series is classed as biochemical. The settings on record: for covalent compound with the enzyme: specific covalent inhibition.
The subject of series [2] is nuclear poly(ADP-Ribose)polymerase. The note with it: Oikawa 1980; Lindahl-Kiessling & Shall 1987; cited from earlier work.
Series [3] concerns Trypanosoma brucei rhodesiense. In words: Growth of Trypanosoma brucei rhodesiense in axenic culture (growth inhibition). It counts as cell-based. The procedure:
1. TRYPANOSOMES: Stabilates of two clones, GUP 2889 and GUP 2814 were used.
Prior to propagation in vitro cell free culture conditions the parasites from stabilates were expanded in CD1 (8-9 week old) female mice. Infected mouse blood obtained by cardiac puncture in EMEM* with 20 U/ml heparin was used for the preparation of blood smears for immunofluorescence analysis.
Antibody mediated lysis of a specific VAT of bloodstream form trypanosomes was performed by incubating an appropriate aliquot of a recently prepared trypanosome suspension at room temperature for 1 hour, in appropriately diluted specific antibody and guinea pig complement. The trypanosomes were observed and counted with inverted phase-contrast microscopy at a magnification of 150× to check for viability and to observe lysed trypanosomes, which appeared stumpy and vacuolated.
Cultures were initiated with aliquots of the above prepared trypanosome suspension. Duplicate T25 flasks, with 10 ml of medium were prepared for each experimental parameter examined. In each experiment the trypanosome density was determined at the initiation of the culture and at the end of the axenic culture period (usually after 18-24 hours) using a Neubaurer haemocytometer.
The instantaneous rate of switching/cell/generation, σi, has been calculated. These values of σ are estimates of the per capita rate for switching to minor VATs. However, these estimates have been made in populations manipulated to consist of a major VAT, the prevalence of which is much higher than that of minor VATs; switching from minor to major VATs has therefore been assumed to be negligible, as has interswitching between minor VATs. Growth rates, r, have been expressed as population doubling times Td, where Td=loge2/r. Switching rates values are presented in the tables as finite, of, rate estimates.
Two clones of Trypanosoma brucei rhodesiense, GUP 2889 and […] were initiated in culture with viable trypanosomes after in vitro trypanolysis of heterotype VAT 1.22 with GUPM 27.1 monoclonal antibody. Viable populations of these trypanosomes were incubated with various concentrations of the poly(ADP-Ribose)polymerase inhibitors. The effect of each concentration of inhibitor was tested in duplicate in T25 culture flasks set up for the axenic culture inhibition experiments. Growth was monitored after 24 hours of incubation at 37° C. in 4-5% CO2 in air. Relative growth inhibition and frequency of antigenic switching of were calculated.
In this assay a continuously growing bloodstream form trypanosome population was incubated in serial inhibitor dilutions in T25 culture flasks using an inoculum of 2×10^4 ·1×10^5 trypanosomes per ml. After an incubation period of 24-48 hours in axenic culture at 37° C. in a 4-5% CO2 incubator, trypanosomes were counted using a haemocytometer and growth inhibition was determined based on the number of generations (kt) of inhibitor treated cultures compared to controls. […] Growth is reduced by up to 17% when 3-N-formylluminol(3-N-FL) is present in the concentration range of 50-400 μM, Table 7.

In series [4] the target is T1, poly(ADP-ribose)polymerase. The series is described as follows: Determination of inhibitory effect on poly(ADP-ribose)polymerase (enzyme activity, Ki, Km). The note with it: for inhibition at 1 µM / inhibition at 2.5 µM / inhibition at 5 µM: read-out: Inhibitor Activity (%); for Ki: poly(ADP-ribose)polymerase, read-out: Ki (Inhibition Constant). It counts as biochemical. The procedure: The enzyme activity was assayed by standard procedures (Murray, B. et al., Mutation Research (1986) 165:191-198). This reference also describes the estimation of the Km (Michaelis Constant) values. The estimation of the Ki (inhibitory constant) values was performed by calculating the Km value in the presence or absence of known concentrations of the enzyme inhibitor. Standard biochemical calculations were then used to calculate the Ki value. The smaller K1 values indicate stronger inhibition. The degree of enzyme inhibition shown in the Table was estimated by measuring the enzyme activity in the presence and absence of the indicated concentrations of inhibitor.

In series [5] the test system is NC(=O)c1ccc[n+]([C@@H]2O[C@H](COP(=O)([O-])OP(=O)(O)OC[C@H]3O[C@@H](n4cnc5c(N)ncnc54)[C@H](O)[C@@H]3O)[C@@H](O)[C@H]2O)c1. The description is as above. It counts as biochemical. The settings on record: other: same assay as Table 5.
Series [6] concerns the target T1, poly(ADP-ribose)polymerase. The settings on record: Farzeneh 1988, cited from earlier work.
In series [7] the target is T1, poly(ADP-ribose)polymerase. The note with it: X-ray or bleomycin exposure; cited from earlier work.

T1 sequence (P09874 whole entry): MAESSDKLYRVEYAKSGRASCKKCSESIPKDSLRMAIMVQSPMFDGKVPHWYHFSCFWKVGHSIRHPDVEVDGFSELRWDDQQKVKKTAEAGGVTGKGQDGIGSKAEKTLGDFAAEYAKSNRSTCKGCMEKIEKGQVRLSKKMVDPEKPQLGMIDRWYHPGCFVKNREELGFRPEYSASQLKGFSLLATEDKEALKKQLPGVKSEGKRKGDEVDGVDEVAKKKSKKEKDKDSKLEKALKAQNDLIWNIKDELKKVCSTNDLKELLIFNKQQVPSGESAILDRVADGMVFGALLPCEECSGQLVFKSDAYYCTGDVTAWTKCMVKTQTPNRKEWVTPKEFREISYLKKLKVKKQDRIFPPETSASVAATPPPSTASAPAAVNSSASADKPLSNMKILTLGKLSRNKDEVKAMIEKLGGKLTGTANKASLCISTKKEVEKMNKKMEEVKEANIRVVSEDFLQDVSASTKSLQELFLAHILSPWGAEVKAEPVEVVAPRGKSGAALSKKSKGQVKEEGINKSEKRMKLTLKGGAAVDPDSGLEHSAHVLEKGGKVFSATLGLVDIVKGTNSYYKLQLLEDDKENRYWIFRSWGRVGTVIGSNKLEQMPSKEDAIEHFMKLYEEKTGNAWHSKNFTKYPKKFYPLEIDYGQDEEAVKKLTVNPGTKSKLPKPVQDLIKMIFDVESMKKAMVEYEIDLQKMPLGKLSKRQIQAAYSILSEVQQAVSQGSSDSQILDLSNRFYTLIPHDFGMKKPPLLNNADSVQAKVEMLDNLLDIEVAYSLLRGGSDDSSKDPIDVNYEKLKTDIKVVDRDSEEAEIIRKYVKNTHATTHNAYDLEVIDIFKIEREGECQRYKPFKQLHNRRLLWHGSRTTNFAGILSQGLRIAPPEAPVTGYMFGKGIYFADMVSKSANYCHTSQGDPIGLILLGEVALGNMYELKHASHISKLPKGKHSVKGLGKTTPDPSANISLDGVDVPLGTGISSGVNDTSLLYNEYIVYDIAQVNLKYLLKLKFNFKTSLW

Turning to `NC(=O)c1cccc(NC(=O)CBr)c1` [Compound 15, 3-bromoacetylaminobenzamide], in series [1], the “covalent compound with the enzyme” value was “act by forming a covalent compound with the enzyme specifically and thus inhibit the enzyme”. Regarding `NC(=O)c1cccc(N)c1` [3-aminobenzamide], in series [2], the “spontaneous sister chromatid exchanges” value is listed as “large increase in spontaneous sister chromatid exchanges”. With `CN(N=O)C(=O)Nc1cccc(C(N)=O)c1` [Compound 19, 3(N-methyl,N-nitroso ureido)benzamide], the “covalent compound with the enzyme” value in series [1] was “act by forming a covalent compound with the enzyme specifically and thus inhibit the enzyme”. Same read-out and setting: to `C=CC(=O)Nc1cccc(C(N)=O)c1` [Compound 4, 3-propenoylaminobenzamide] belongs “act by forming a covalent compound with the enzyme specifically and thus inhibit the enzyme”. With `O=CNc1cccc2c(=O)[nH][nH]c(=O)c12` [Compound 22, 5-formylamino-2,3-dihydro-1,4-phthalazinedione], the “growth reduced by up to” value in series [3] (50-400 μM) was “up to 17%”. Further, the activity at 50 µM in series [3] (Trypanosoma brucei, RHODESIENSE, 50 μM, n = 8, control 1.00, read-out: Relative Growth Rate (S.D., n)) worked out at 121 ± 13%. Besides, the activity at 100 µM in series [3] (Trypanosoma brucei, RHODESIENSE, 100 μM, n = 8, control 1.00, read-out: Relative Growth Rate (S.D., n)) is 91 ± 22%. Also, the activity at 250 µM in series [3] (Trypanosoma brucei, RHODESIENSE, 250 μM, n = 8, control 1.00, read-out: Relative Growth Rate (S.D., n)) was found to be 83 ± 42%. Moreover, the activity at 400 µM in series [3] (Trypanosoma brucei, RHODESIENSE, 400 μM, n = 4, control 1.00, read-out: Relative Growth Rate (S.D., n)) amounted to 85 ± 4%. In series [4], the inhibition at 1 µM came to 54%, the inhibition at 2.5 µM was 71% and the Ki turned out to be 518 ± 40 nM. In the case of `CCOC(=O)c1cccc(NC(=O)N(C)N=O)c1` [Compound 21, Ethyl,3-(N-methyl,N-nitrosoureido)benzoate], the “ability to form covalent compounds” value in series [1] is “form covalent compounds”. Besides, the “enzyme inhibition (in words)” value in series [4] was “not enzyme inhibitors”. The corresponding values for `CN(N=O)C(=O)Nc1ccc(C(N)=O)cc1` [Compound 20, 4(N-methyl,N-nitroso ureido)benzamide] are “form covalent compounds” and “not enzyme inhibitors”.

On to “poly(ADP-ribose)polymerase (Homo sapiens)”, for which the Michaelis constant (Km) in series [5] turned out to be 100 ± 13.7 µM. Turning to `NC(=O)c1cccc(NC(=O)CCCl)c1` [Compound 7], the “covalent compound with the enzyme” value in series [1] is “act by forming a covalent compound with the enzyme specifically and thus inhibit the enzyme”. Still for that read-out and setting: then `NC(=O)c1cccc(NC(=O)CCl)c1` [Compound 14, 3-chloroacetylaminobenzamide], with “act by forming a covalent compound with the enzyme specifically and thus inhibit the enzyme”. As to `COc1cccc(C(N)=O)c1` [3-methoxybenzamide], in series [6] (non-homologous/illegitimate DNA recombination), the “integration of foreign DNA into the genome” value was “blocked the integration of foreign DNA into the genome”. In series [6] (introduced via plasmids), the “uptake and expression of foreign DNA” value is listed as “not affected”. Turning to `NC(=O)Nc1cccc(C(N)=O)c1` [Compound 8, 3-ureidobenzamide], the inhibition at 5 µM in series [4] came out at 61%. As to `O=c1[nH]nc(O)c2cccc(O)c12` [Compound 27, 1,5-dihydroxy-3-hydro-4-phthalazinone], in series [4], the inhibition at 1 µM stood at 47%, the inhibition at 2.5 µM stood at 71% and the inhibition at 5 µM is 82%. `CCC(=O)Nc1cccc(C(N)=O)c1` [3-propionylaminobenzamide, reference compound]: the Ki in series [4] is 2490 ± 300 nM. In the case of `CC(=O)Nc1cccc(C(N)=O)c1` [3-acetylaminobenzamide, reference compound], the Ki in series [4] amounted to 3200 ± 410 nM.

For `NC(=O)c1cccc(NC(=O)CCBr)c1` [Compound 16], the “covalent compound with the enzyme” value in series [1] is “act by forming a covalent compound with the enzyme specifically and thus inhibit the enzyme”. As to `N=C(N)Nc1cccc(C(N)=O)c1` [Compound 26, 3-(guanidino)benzamide], the inhibition at 5 µM in series [4] amounted to 32%.

For `C=CC(=O)Nc1cccc(C(=O)O)c1` [Compound 12, 3-propenoylaminobenzoic acid], the “ability to form covalent compounds” value in series [1] is “form covalent compounds”. Moreover, in series [4], the “enzyme inhibition (in words)” value is reported as “not enzyme inhibitors”.

`NC(=O)c1cccnc1` [nicotinamide]: the “recovery of the damaged cells” value in series [7] is recorded as “inhibit recovery of the damaged cells”. On to `CNC(=O)Nc1cccc(C(N)=O)c1` [Compound 9, 3-methylureidobenzamide], for which the inhibition at 5 µM in series [4] is 61%.
